Measured values taken from PubChem BioAssay (NCI).
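Cells were grown in 96-well plates and exposed to each compound for 48 hours at five concentrations; endpoints were interpolated linearly between bracketing concentrations, or set to the highest concentration if not reached. TGI is the concentration that stops growth completely.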

How the values were obtained:
Experiment in all cases: NCI tumour cell line growth inhibition, 48 h
[1] = tested on: U251 CNS
[2] = tested on: DMS 114 small cell lung
[3] = tested on: HCT-15 colon
[4] = tested on: OVCAR-3 ovarian
[5] = tested on: NCI-H23 lung
[6] = tested on: HCC-2998 colon
[7] = tested on: TK-10 renal
[8] = tested on: SF-539 CNS
[9] = tested on: SNB-75 CNS
[10] = tested on: SF-295 CNS
[11] = tested on: HOP-62 NSCLC
[12] = tested on: OVCAR-5 ovarian
[13] = tested on: EKVX NSCLC
[14] = tested on: RXF 393 renal
[15] = tested on: IGROV1 ovarian
[16] = tested on: SK-MEL-5 melanoma
[17] = tested on: LOX IMVI melanoma
[18] = tested on: K-562 leukemia
[19] = tested on: MALME-3M melanoma
[20] = tested on: OVCAR-4 ovarian
[21] = tested on: ACHN renal
[22] = tested on: SK-OV-3 ovarian
[23] = tested on: M19-MEL melanoma
[24] = tested on: 786-0 renal
[25] = tested on: UO-31 renal
[26] = tested on: DLD-1 colon
[27] = tested on: M14 melanoma
[28] = tested on: KM12 colon
[29] = tested on: UACC-257 melanoma
[30] = tested on: KM20L2 colon
[31] = tested on: SK-MEL-28 melanoma
[32] = tested on: COLO 205 colon
[33] = tested on: RPMI-8226 leukemia
[34] = tested on: MOLT-4 leukemia
[35] = tested on: LXFL 529 NSCLC
[36] = tested on: CAKI-1 renal
[37] = tested on: HT29 colon
[38] = tested on: HOP-92 NSCLC
[39] = tested on: DMS 273 small cell lung
[40] = tested on: A549 NSCLC
[41] = tested on: SK-MEL-2 melanoma
[42] = tested on: HOP-18 NSCLC
[43] = tested on: SF-268 CNS
[44] = tested on: SN12C renal
[45] = tested on: NCI-H522 lung
[46] = tested on: SNB-19 CNS
[47] = tested on: HL-60(TB) leukemia
[48] = tested on: NCI-H460 lung
[49] = tested on: UACC-62 melanoma
[50] = tested on: CCRF-CEM leukemia
[51] = tested on: SW-620 colon
[52] = tested on: OVCAR-8 ovarian
[53] = tested on: HCT-116 colon
[54] = tested on: MDA-N
[55] = tested on: DU-145 prostate
[56] = tested on: MCF7 breast
[57] = tested on: PC-3 prostate
[58] = tested on: HS 578T breast
[59] = tested on: T-47D breast
[60] = tested on: SR leukemia
[61] = tested on: NCI/ADR-RES ovarian
[62] = tested on: BT-549 breast
[63] = tested on: MDA-MB-435
[64] = tested on: NCI-H226 lung
[65] = tested on: MDA-MB-231 breast
[66] = tested on: A498 renal

N#CC1(C#N)C(c2ccc(C3C(C#N)(C#N)C3(C#N)C#N)cc2)C1(C#N)C#N
TGI [1]: > 100 µM
TGI [2]: > 100 µM
TGI [3]: > 100 µM
TGI [4]: > 100 µM
TGI [5]: > 100 µM
TGI [6]: > 100 µM
TGI [7]: > 100 µM
TGI [8]: > 100 µM
TGI [9]: > 100 µM
TGI [10]: > 100 µM
TGI [11]: > 100 µM
TGI [12]: > 100 µM
TGI [13]: > 100 µM
TGI [14]: > 100 µM
TGI [15]: > 100 µM
TGI [16]: > 100 µM
TGI [17]: > 100 µM
TGI [18]: > 100 µM
TGI [19]: > 100 µM
TGI [20]: > 100 µM
TGI [21]: > 100 µM
TGI [22]: > 100 µM
TGI [23]: > 100 µM
TGI [24]: > 100 µM
TGI [25]: > 100 µM
TGI [26]: > 100 µM
TGI [27]: > 100 µM
TGI [28]: > 100 µM
TGI [29]: > 100 µM
TGI [30]: > 100 µM
TGI [31]: > 100 µM
TGI [32]: > 100 µM
TGI [33]: > 100 µM
TGI [34]: > 100 µM
TGI [35]: > 100 µM
TGI [36]: > 100 µM
TGI [37]: > 100 µM
TGI [38]: > 100 µM
TGI [39]: > 100 µM
TGI [40]: > 100 µM
TGI [41]: > 100 µM
TGI [42]: > 100 µM
TGI [43]: > 100 µM
TGI [44]: > 100 µM
TGI [45]: > 100 µM
TGI [46]: > 100 µM
TGI [47]: > 100 µM
TGI [48]: > 100 µM
TGI [49]: > 100 µM
TGI [50]: > 100 µM
TGI [51]: > 100 µM
TGI [52]: > 100 µM

COc1ccc(NC2C(=O)C3(C)CCC2C3(C)C)cc1 (stereo unspecified)
TGI [1]: > 100 µM
TGI [53]: > 100 µM
TGI [3]: > 100 µM
TGI [4]: > 100 µM
TGI [5]: > 100 µM
TGI [6]: > 100 µM
TGI [7]: > 100 µM
TGI [8]: > 100 µM
TGI [9]: > 100 µM
TGI [10]: > 100 µM
TGI [11]: > 100 µM
TGI [12]: > 100 µM
TGI [13]: > 100 µM
TGI [14]: > 100 µM
TGI [15]: > 100 µM
TGI [16]: 99.8 µM
TGI [17]: > 100 µM
TGI [18]: > 100 µM
TGI [19]: > 100 µM
TGI [20]: > 100 µM
TGI [21]: > 100 µM
TGI [22]: > 100 µM
TGI [54]: > 100 µM
TGI [24]: > 100 µM
TGI [55]: > 100 µM
TGI [25]: > 100 µM
TGI [56]: > 100 µM
TGI [57]: > 100 µM
TGI [27]: > 100 µM
TGI [28]: > 100 µM
TGI [29]: > 100 µM
TGI [31]: > 100 µM
TGI [32]: > 100 µM
TGI [33]: > 100 µM
TGI [34]: > 100 µM
TGI [58]: > 100 µM
TGI [59]: > 100 µM
TGI [36]: > 100 µM
TGI [37]: > 100 µM
TGI [38]: > 100 µM
TGI [40]: > 100 µM
TGI [41]: > 100 µM
TGI [43]: > 100 µM
TGI [44]: > 100 µM
TGI [45]: > 100 µM
TGI [60]: > 100 µM
TGI [61]: > 100 µM
TGI [46]: > 100 µM
TGI [47]: > 100 µM
TGI [62]: > 100 µM
TGI [48]: > 100 µM
TGI [49]: > 100 µM
TGI [50]: > 100 µM
TGI [63]: > 100 µM
TGI [64]: > 100 µM
TGI [65]: > 100 µM
TGI [51]: > 100 µM
TGI [52]: > 100 µM
TGI [66]: > 100 µM
